# Article PMC7583942, “Profiling Anticancer and Antioxidant Activities of Phenolic Compounds Present in Black Walnuts (Juglans nigra) Using a High-Throughput Screening Approach” (Molecules, 2020)
# Where two headings read alike, the source gives them in different places.
# How the values were obtained:
# [1] = system: non-tumorigenic lung fibroblast cells (MRC-5); test: Cell proliferation assay (CellTiter-Glo), MRC-5; type: cell-based, human; details: read-out: Half maximal inhibitory concentration (IC50), MRC-5 Cell Line
# Protocol: (§1) An Nrf2 antioxidant response element (ARE) reporter HepG2 cell line, a stably transfected liver cell line expressing a firefly luciferase gene under the control of the ARE, was purchased from BPS Bioscience (San Diego, CA, USA). The human alveolar epithelial cell line A549 and the human lung fibroblast cell line MRC-5 were obtained from American Type Culture Collection (ATCC) (CCL-185 and CCL-171, ATCC, Manassas, VA, USA). The HepG2-ARE cells were grown in modified Eagle’s medium (MEM) supplemented with GlutaMAX, 10% fetal calf serum (FBS) and 600ug/mL Geneticin (Thermo Fisher Scientific, Waltham, MA, USA). […] All cells were grown and maintained at 37 °C in a humidified incubator with 5% CO2. Influence of the phenolic compounds on cell growth in the tumorigenic alveolar epithelial cells (A549) and non-tumorigenic lung fibroblast cell (MRC-5) cell lines was investigated using the CellTiter-Glo® cell viability assay kit (G7571, BioVision, CA, USA), according to the manufacturer’s instructions. […] The cultures were treated with the phenolic compounds and DL-Sulphorane (a known antiproliferative agent as a positive control) at 7 final concentrations (as mentioned above) and a vehicle (0.35% DMSO). After 72h of incubation, CellTiter-Glo Luminescent assay reagent (Promega) was dispensed at a volume of 10 µL per well into the 384-well plates for 10 min using the Matrix Wellmate dispenser (Thermo Fisher Scientific). The plates were allowed to incubate at room temperature for 20 min and then the luminescence was read using an Enspire microplate reader (Perkin Elmer Inc.) The relative cytotoxicity (%) of the phenolic compounds was calculated by dividing the specific luminescence absorbance of the treated sampled by the specific luminescence absorbance of the control sample and multiplying by 100. The control sample (in the presence of DMSO vehicle and without the compounds) was set at 100%. Non-linear regression analysis of data was performed to identify the dose-response curve for each compound. The IC50 values (half maximal inhibitory concentration) of each compound were determined from the dose-response curve for the A549 and MRC-5 cell lines using GraphPad Prism 8.
# [2] = system: tumorigenic alveolar epithelial cells (A549); test: Cell proliferation assay (CellTiter-Glo), A549; type: cell-based, human; details: read-out: Half maximal inhibitory concentration (IC50), A549 Cell Line
# Protocol: as §1
# [3] = Total antioxidant capacity (TAC) colorimetric assay; details: for Fold-Increase Over Trolox: coefficient of compound model divided by coefficient of Trolox control; for total antioxidant capacity compared with the control (Trolox): in words; for Slope (in Trolox Equivalents): linear regression of dose-response, 7 concentrations, Cu2+ reagent, 1.5 h, absorbance 570 nm
# Protocol: The antioxidant capacity of the phenolic compounds was evaluated using a total antioxidant capacity (TAC) colorimetric assay kit (K274-100, BioVision, CA, USA), according to the manufacturer’s instructions. Briefly, the phenolic compounds tested at 7 concentrations (as described above) were added to 384-well plates. Subsequently, Cu^2+ working solution (12.5 µL/ well) was added into the sample wells. The 384-well plates were incubated for 1.5 h at room temperature and the absorbance of the samples was then read at 570 nm using a microplate reader (Enspire, Perkin Elmer Inc., Waltham, MA, USA). Trolox was used to standardize the antioxidant capacity, as recommended by the manufacturer. A Trolox standard curve was included, and the total antioxidant capacity of the phenolic compounds was interpolated and expressed as Trolox equivalent (mM) from a seven-parameter logistic curve of the Trolox control using curve-fitting software.
# For total antioxidant capacity analysis, linear regression analysis was performed to identify the linear regression equation for each compound using GraphPad Prism 8 (San Diego, CA, USA). The coefficient of the compound equation was compared with the coefficient of the Trolox control to determine the relative total antioxidant capacity of each compound. Fold-increase over Trolox was calculated by dividing the coefficient of the compound models by the coefficient of the Trolox control.
# [4] = system: antioxidant response element (ARE) in HepG2-ARE cells; test: Antioxidant response element (ARE) activation, Steady-Glo luciferase reporter assay; type: cell-based, human; details: for toxicity to HepG2-ARE cells: at high concentrations, did not induce ARE activation
# Protocol: An Nrf2 antioxidant response element (ARE) reporter HepG2 cell line, a stably transfected liver cell line expressing a firefly luciferase gene under the control of the ARE, was purchased from BPS Bioscience (San Diego, CA, USA). The human alveolar epithelial cell line A549 and the human lung fibroblast cell line MRC-5 were obtained from American Type Culture Collection (ATCC) (CCL-185 and CCL-171, ATCC, Manassas, VA, USA). The HepG2-ARE cells were grown in modified Eagle’s medium (MEM) supplemented with GlutaMAX, 10% fetal calf serum (FBS) and 600ug/mL Geneticin (Thermo Fisher Scientific, Waltham, MA, USA). The tumorigenic alveolar epithelial cells (A549) and non-tumorigenic lung fibroblast cells (MRC-5) were grown in RPMI medium supplemented with 10% FBS. All cells were grown and maintained at 37 °C in a humidified incubator with 5% CO2.
# The impact of the phenolic compounds on ARE activation in the HepG2-ARE cell line was evaluated using Steady-Glo® Luciferase assay system (E2510, Promega, Madison, WI, USA), following the manufacturer’s instructions. In brief, the HepG2 -ARE cells were seeded at a density of 10,000 cells/well in 384-well plates containing 50 µL of the complete media per well using a Multidrop Combi dispenser (Thermo Fisher Scientific, Waltham, MA, USA) and then the plate cultures were incubated at 37 °C in a 5% CO2 humidified incubator for 20 h. The HepG2-ARE cells were incubated with compounds for 18 h. The known ARE activator TBHQ was used as a positive control and the cells treated with 0.35% DMSO and without compounds tested served as a vehicle control. The cells in the absence of DMSO and the compounds were utilized for measuring the background luminescence. The reporter activity was measured by the addition of 25 µL Steady-Glo® luciferase assay reagent (Promega) for 30 min using the Multidrop Combi dispenser (Thermo Fisher Scientific). The luminescence intensities of the 384-well plates were read on Enspire microplate reader (Perkin Elmer Inc.). Percent cytotoxicity of compounds was normalized to the positive and negative controls on each assay plate.
# The ARE fold induction of the compounds was measured by dividing the luminescence absorbance of the treatment by the specific luminescence absorbance of the control sample and multiplying by 100. The control sample (in the presence of DMSO vehicle and without the compounds) was set at 100%.
# [5] = Homo sapiens, MRC5, 72 h incubation
# [6] = Homo sapiens, A549, 72 h incubation
compound,measurement,setting,value
"C[S+]([O-])CCCCN=C=S (racemic) [DL-Sulforaphane, reference compound]",IC50,[1]; 72 h incubation,9.95 µM
same,IC50,[2]; 72 h incubation,17 µM
Oc1cc(O)c2c(c1)O[C@H](c1ccc(O)c(O)c1)[C@@H](O)C2 [(+)-Catechin],IC50,[1]; 72 h incubation,> 250 µM
same,IC50,[2]; 72 h incubation,> 250 µM
same,Fold-Increase Over Trolox,[3],2.0
same,total antioxidant capacity compared with the control (Trolox),[3],higher
same,Slope (in Trolox Equivalents),[3],0.002029 ± 3.184 × 10^−5
Oc1cc(O)c2c(c1)O[C@H](c1ccc(O)c(O)c1)[C@H](O)C2 [(−)-Epicatechin],IC50,[1]; [5],> 250 µM
same,ARE activation among all compounds (rank in words),"[4]; HepG2-ARE cells, 18 h",strongest
same,IC50,[2]; [6],> 250 µM
same,Fold-Increase Over Trolox,[3],3.7
same,total antioxidant capacity compared with the control (Trolox),[3],higher
same,Slope (in Trolox Equivalents),[3],0.003729 ± 7.546 × 10^−5
O=c1oc2c(O)c(O)cc3c(=O)oc4c(O)c(O)cc1c4c23 [Ellagic acid],IC50,[1]; [5],> 250 µM
same,IC50,[2]; [6],> 250 µM
same,Fold-Increase Over Trolox,[3],0.5
same,total antioxidant capacity compared with the control (Trolox),[3],lower
same,Slope (in Trolox Equivalents),[3],0.0005183 ± 2.860 × 10^−5
O=C(O[C@@H]1Cc2c(O)cc(O)cc2O[C@@H]1c1ccc(O)c(O)c1)c1cc(O)c(O)c(O)c1 [Epicatechin gallate],IC50,[1]; [5],64.4 µM
same,toxicity to HepG2-ARE cells,[4],toxic to cells
same,IC50,[2]; [6],66 µM
same,Fold-Increase Over Trolox,[3],4.2
same,total antioxidant capacity compared with the control (Trolox),[3],higher
same,Slope (in Trolox Equivalents),[3],0.004294 ± 1.570 × 10^−4
COc1cc(/C=C/C(=O)O)ccc1O [Ferulic acid],IC50,[1]; 72 h incubation,> 250 µM
same,IC50,[2]; 72 h incubation,> 250 µM
same,Fold-Increase Over Trolox,[3],1.8
same,total antioxidant capacity compared with the control (Trolox),[3],higher
same,Slope (in Trolox Equivalents),[3],0.001775 ± 5.026 × 10^−5
O=C(O)c1cc(O)c(O)c(O)c1 [Gallic acid],IC50,[1]; [5],48.2 µM
same,IC50,[2]; [6],> 250 µM
same,total antioxidant capacity compared with the control (Trolox),[3],higher
same,Slope (in Trolox Equivalents),[3],0.002541 ± 1.392 × 10^−5
C[C@@H]1O[C@@H](O[C@H]2[C@H](Oc3cc(O)c4c(c3)O[C@H](c3ccc(O)cc3)CC4=O)O[C@H](CO)[C@@H](O)[C@@H]2O)[C@H](O)[C@H](O)[C@H]1O [Naringin],IC50,[1]; [5],> 250 µM
same,IC50,[2]; [6],> 250 µM
same,Fold-Increase Over Trolox,[3],0.5
same,total antioxidant capacity compared with the control (Trolox),[3],lower
same,Slope (in Trolox Equivalents),[3],0.0005177 ± 9.755 × 10^−6
O=C(OC[C@H]1O[C@@H](OC(=O)c2cc(O)c(O)c(O)c2)[C@H](OC(=O)c2cc(O)c(O)c(O)c2)[C@@H](OC(=O)c2cc(O)c(O)c(O)c2)[C@@H]1OC(=O)c1cc(O)c(O)c(O)c1)c1cc(O)c(O)c(O)c1 [Penta-O-galloyl-β-D-glucose],IC50,[1]; 72 h incubation,10.4 µM
same,toxicity to HepG2-ARE cells,[4],toxic to cells
same,IC50,[2]; 72 h incubation,6.11 µM
same,Fold-Increase Over Trolox,[3],11.5
same,total antioxidant capacity compared with the control (Trolox),[3],higher
same,Slope (in Trolox Equivalents),[3],0.01167 ± 5.756 × 10^−4
O=c1c(O[C@@H]2O[C@H](CO)[C@@H](O)[C@H](O)[C@H]2O)c(-c2ccc(O)c(O)c2)oc2cc(O)cc(O)c12 [Quercetin 3-β-D-glucoside],IC50,[1]; 72 h incubation,12.2 µM
same,toxicity to HepG2-ARE cells,[4],toxic to cells
same,IC50,[2]; 72 h incubation,6.89 µM
same,Fold-Increase Over Trolox,[3],2.9
same,total antioxidant capacity compared with the control (Trolox),[3],higher
same,Slope (in Trolox Equivalents),[3],0.002908 ± 1.522 × 10^−4
O=c1c(O)c(-c2ccc(O)c(O)c2)oc2cc(O)cc(O)c12 [Quercetin],IC50,[1]; [5],99.5 µM
same,IC50,[2]; [6],87.7 µM
same,Fold-Increase Over Trolox,[3],4.0
same,total antioxidant capacity compared with the control (Trolox),[3],higher
same,Slope (in Trolox Equivalents),[3],0.004045 ± 1.392 × 10^−4
O=C(O)[C@]1(O)C[C@@H](O)[C@@H](O)[C@H](O)C1 [Quinic acid],IC50,[1]; [5],> 250 µM
same,IC50,[2]; [6],> 250 µM
same,Fold-Increase Over Trolox,[3],<0.1
same,total antioxidant capacity compared with the control (Trolox),[3],lower
same,Slope (in Trolox Equivalents),[3],−0.0000004 ± 1.034 × 10^−6
C[C@@H]1O[C@@H](OC[C@H]2O[C@@H](Oc3c(-c4ccc(O)c(O)c4)oc4cc(O)cc(O)c4c3=O)[C@H](O)[C@@H](O)[C@@H]2O)[C@H](O)[C@H](O)[C@H]1O [Rutin],IC50,[1]; [5],> 250 µM
same,IC50,[2]; [6],> 250 µM
same,Fold-Increase Over Trolox,[3],2.9
same,total antioxidant capacity compared with the control (Trolox),[3],higher
same,Slope (in Trolox Equivalents),[3],0.002962 ± 1.551 × 10^−4
COc1cc(C(=O)O)cc(OC)c1O [Syringic acid],IC50,[1]; [5],> 250 µM
same,IC50,[2]; [6],> 250 µM
same,Fold-Increase Over Trolox,[3],1.1
same,total antioxidant capacity compared with the control (Trolox),[3],higher
same,Slope (in Trolox Equivalents),[3],0.001088 ± 1.057 × 10^−5
"Cc1c(C)c2c(c(C)c1O)CCC(C)(C(=O)O)O2 (centres unmarked) [Trolox, reference compound]",Fold-Increase Over Trolox,[3],1.0
same,Slope (in Trolox Equivalents),[3],0.001014 ± 1.125 × 10^−5
COc1cc(C(=O)O)ccc1O [Vanillic acid],IC50,[1]; [5],> 250 µM
same,IC50,[2]; [6],> 250 µM
same,Fold-Increase Over Trolox,[3],0.7
same,total antioxidant capacity compared with the control (Trolox),[3],lower
same,Slope (in Trolox Equivalents),[3],0.0007396 ± 4.245 × 10^−5
O=C(O)C=Cc1ccc(O)cc1 [p-Coumaric acid],IC50,[1]; [5],> 250 µM
same,IC50,[2]; [6],> 250 µM
same,Fold-Increase Over Trolox,[3],0.3
same,total antioxidant capacity compared with the control (Trolox),[3],lower
same,Slope (in Trolox Equivalents),[3],0.0003139 ± 1.434 × 10^−5
O=C(O)c1ccc(O)cc1 [p-Hydroxybenzoic acid],IC50,[1]; [5],> 250 µM
same,IC50,[2]; [6],> 250 µM
same,total antioxidant capacity compared with the control (Trolox),[3],lower
same,Slope (in Trolox Equivalents),[3],−0.000008 ± 1.260 × 10^−5
